Results reported in ChEMBL document CHEMBL5247606, “Advances of targeting the YAP/TAZ-TEAD complex in the hippo pathway for the treatment of cancers” (Eur J Med Chem, 2022).

Key:
[1] = biological target: Transcriptional coactivator YAP1 (Homo sapiens) (UniProt P46937); assay: Inhibition of YAP (unknown origin) phosporylation relative to control; conditions: concentration not given here
[2] = biological target: T1, Serine/threonine-protein kinase LATS1 (Homo sapiens) (UniProt O95835); assay: Inhibition of LATS1 (unknown origin) phosporylation relative to control; conditions: dose 10.0 µM
T1 sequence (whole entry): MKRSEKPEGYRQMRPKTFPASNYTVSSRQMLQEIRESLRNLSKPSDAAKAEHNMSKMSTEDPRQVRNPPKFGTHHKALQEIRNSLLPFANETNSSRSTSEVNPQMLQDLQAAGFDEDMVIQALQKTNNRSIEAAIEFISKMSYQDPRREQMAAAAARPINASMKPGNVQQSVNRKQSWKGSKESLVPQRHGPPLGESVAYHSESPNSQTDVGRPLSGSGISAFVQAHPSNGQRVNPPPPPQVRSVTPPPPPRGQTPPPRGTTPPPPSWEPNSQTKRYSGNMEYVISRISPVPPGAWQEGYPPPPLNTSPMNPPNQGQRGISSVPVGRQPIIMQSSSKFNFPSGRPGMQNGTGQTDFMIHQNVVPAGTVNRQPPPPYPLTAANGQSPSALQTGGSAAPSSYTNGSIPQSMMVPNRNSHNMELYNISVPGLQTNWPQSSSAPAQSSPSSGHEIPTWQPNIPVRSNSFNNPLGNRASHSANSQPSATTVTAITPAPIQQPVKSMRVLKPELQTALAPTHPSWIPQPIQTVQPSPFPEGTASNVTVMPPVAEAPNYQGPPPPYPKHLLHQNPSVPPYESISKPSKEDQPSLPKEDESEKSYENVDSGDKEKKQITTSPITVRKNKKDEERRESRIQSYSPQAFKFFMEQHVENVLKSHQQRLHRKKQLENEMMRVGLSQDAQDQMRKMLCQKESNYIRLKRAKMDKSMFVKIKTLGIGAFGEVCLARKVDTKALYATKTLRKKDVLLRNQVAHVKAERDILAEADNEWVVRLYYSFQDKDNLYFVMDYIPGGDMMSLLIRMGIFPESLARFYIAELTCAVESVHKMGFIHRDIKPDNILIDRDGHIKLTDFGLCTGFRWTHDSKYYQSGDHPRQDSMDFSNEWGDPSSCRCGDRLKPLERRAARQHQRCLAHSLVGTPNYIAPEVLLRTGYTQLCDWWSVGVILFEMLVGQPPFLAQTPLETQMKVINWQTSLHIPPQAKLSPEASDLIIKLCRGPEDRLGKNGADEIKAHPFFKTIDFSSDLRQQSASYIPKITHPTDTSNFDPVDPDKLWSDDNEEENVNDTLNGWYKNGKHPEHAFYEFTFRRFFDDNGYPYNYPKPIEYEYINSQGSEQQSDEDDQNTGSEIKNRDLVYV

Chain of Transcriptional coactivator YAP1 (Homo sapiens) (P46937 whole entry): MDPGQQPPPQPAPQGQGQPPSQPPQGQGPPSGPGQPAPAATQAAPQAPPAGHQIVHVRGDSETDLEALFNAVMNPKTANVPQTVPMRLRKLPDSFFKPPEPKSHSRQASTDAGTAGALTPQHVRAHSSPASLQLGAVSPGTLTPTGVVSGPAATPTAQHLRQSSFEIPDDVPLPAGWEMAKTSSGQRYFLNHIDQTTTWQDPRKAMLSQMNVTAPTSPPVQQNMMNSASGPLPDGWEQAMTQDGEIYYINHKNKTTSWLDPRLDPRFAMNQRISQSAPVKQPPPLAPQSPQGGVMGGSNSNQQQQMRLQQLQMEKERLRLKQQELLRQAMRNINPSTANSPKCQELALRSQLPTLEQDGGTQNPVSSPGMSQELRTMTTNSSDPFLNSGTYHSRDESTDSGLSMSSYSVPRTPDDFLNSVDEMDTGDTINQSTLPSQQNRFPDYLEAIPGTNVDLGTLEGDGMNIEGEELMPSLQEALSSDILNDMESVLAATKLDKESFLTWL

inhibition [1]: < 30%
inhibition [2]: < 30%
Compound: CCOc1cc2ncc(C#N)c(Nc3ccc(OCc4ccccn4)c(Cl)c3)c2cc1NC(=O)/C=C/CN(C)C
